Values joined by “and” are separate entries in the source; they are usually repeats but may differ in a detail not shown here. Equal entries are not always repeated. Inconclusive results and toxic doses are left out.

The experiment relates to P388 leukemia ip, CD2F1 mice, survival T/C. The experiment in a line: NCI In Vivo Anticancer Drug Screen. Data for tumor model P388 Leukemia (intraperitoneal) in CD2F1 (CDF1) mice. The following applies: endpoint: median survival time, higher = longer survival. A digest of the protocol: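 Mice carrying the transplanted tumor received test compound or vehicle. Survival was recorded in each group, and the value is the treated-group measurement divided by that of the vehicle-treated control group.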

The mark [1] stands for this setting: dose: 50.0 mg/kg/injection, schedule: Q01DX005 (ip), vehicle: saline with Tween-80.
Setting [2] is: dose: 100.0 mg/kg/injection, schedule: Q01DX005 (ip), vehicle: saline with Tween-80.
Where [3] appears, read: dose: 200.0 mg/kg/injection, schedule: Q01DX005 (ip), vehicle: saline with Tween-80.
Setting [4] is: dose: 100.0 mg/kg/injection, schedule: Q01DX001 (ip), vehicle: saline with Tween-80.
The mark [5] stands for this setting: dose: 200.0 mg/kg/injection, schedule: Q01DX001 (ip), vehicle: saline with Tween-80.
The mark [6] stands for this setting: dose: 50.0 mg/kg/injection, schedule: Q01DX009 (ip), vehicle: saline.
Setting [7] is: dose: 50.0 mg/kg/injection, schedule: Q01DX005 (ip), vehicle: Klucel (hydroxypropylcellulose) (HPC).
The mark [8] stands for this setting: dose: 100.0 mg/kg/injection, schedule: Q01DX005 (ip), vehicle: Klucel (hydroxypropylcellulose) (HPC).
Where [9] appears, read: dose: 200.0 mg/kg/injection, schedule: Q01DX005 (ip), vehicle: Klucel (hydroxypropylcellulose) (HPC).
The mark [10] stands for this setting: dose: 100.0 mg/kg/injection, schedule: Q01DX001 (ip), vehicle: Klucel (hydroxypropylcellulose) (HPC).
Setting [11] is: dose: 200.0 mg/kg/injection, schedule: Q01DX001 (ip), vehicle: Klucel (hydroxypropylcellulose) (HPC).
Setting [12] is: dose: 400.0 mg/kg/injection, schedule: Q01DX001 (ip), vehicle: Klucel (hydroxypropylcellulose) (HPC).
Where [13] appears, read: dose: 50.0 mg/kg/injection, schedule: Q01DX009 (ip), vehicle: Klucel (hydroxypropylcellulose) (HPC).
[14] abbreviates: dose: 100.0 mg/kg/injection, schedule: Q01DX009 (ip), vehicle: Klucel (hydroxypropylcellulose) (HPC).
Setting [15] is: dose: 200.0 mg/kg/injection, schedule: Q01DX009 (ip), vehicle: Klucel (hydroxypropylcellulose) (HPC).

Take `COC(=O)c1c(C(=O)Nc2ccccc2)c(-c2ccccc2)n(NC(N)=O)c1C`: the T/C is, setting by setting: under setting [1], 112 % of control; under setting [2], 107 % of control; under setting [3], 104 % of control.

For `CCc1nc(N)nc(N)c1-c1ccc([N+](C)(C)C)cc1`, the T/C is 101 % of control (dose: 6.25 mg/kg/injection, schedule: Q01DX005 (ip), vehicle: Klucel (hydroxypropylcellulose) (HPC)); 101 % of control (dose: 12.5 mg/kg/injection, schedule: Q01DX005 (ip), vehicle: Klucel (hydroxypropylcellulose) (HPC)); 103 % of control (dose: 25.0 mg/kg/injection, schedule: Q01DX005 (ip), vehicle: Klucel (hydroxypropylcellulose) (HPC)).

Take `COc1ccc(O)cc1`: the T/C is 104 % of control (dose: 12.5 mg/kg/injection, schedule: Q01DX005 (ip), vehicle: saline with Tween-80); 99 % of control (dose: 25.0 mg/kg/injection, schedule: Q01DX005 (ip), vehicle: saline with Tween-80); 99 % of control under setting [1]; 101 % of control under setting [4]; 99 % of control under setting [2]; 102 % of control under setting [5].

On to `CCOC(=O)c1ccc(N2C(=O)C3C4C=CC(O4)C3C2=O)cc1` (stereo not drawn), for which the T/C is 112 % of control (dose: 100.0 mg/kg/injection, schedule: Q04DX003 (ip), vehicle: Klucel (hydroxypropylcellulose) (HPC)); 105 % of control (dose: 200.0 mg/kg/injection, schedule: Q04DX003 (ip), vehicle: Klucel (hydroxypropylcellulose) (HPC)); 111 % of control (dose: 400.0 mg/kg/injection, schedule: Q04DX003 (ip), vehicle: Klucel (hydroxypropylcellulose) (HPC)).

As for `CC(=O)Oc1ccc[nH]c1=O`, the T/C (dose: 100.0 mg/kg/injection, schedule: Q01DX009 (ip), vehicle: saline with Tween-80) is 104 % of control; the T/C (dose: 100.0 mg/kg/injection, schedule: Q04DX003 (ip), vehicle: saline with Tween-80) is 113 % of control; the T/C (dose: 200.0 mg/kg/injection, schedule: Q01DX009 (ip), vehicle: saline with Tween-80) is 118 % of control; the T/C (dose: 200.0 mg/kg/injection, schedule: Q04DX003 (ip), vehicle: saline with Tween-80) was 104 % of control; the T/C (dose: 300.0 mg/kg/injection, schedule: Q01DX009 (ip), vehicle: saline) is 155 % of control; the T/C (dose: 400.0 mg/kg/injection, schedule: Q01DX009 (ip), vehicle: saline) is 158 % of control. Besides, the T/C was 109 % of control (dose: 400.0 mg/kg/injection, schedule: Q04DX003 (ip), vehicle: saline with Tween-80); 87 % of control and 91 % of control (dose: 500.0 mg/kg/injection, schedule: Q01DX009 (ip), vehicle: saline); 115 % of control (dose: 600.0 mg/kg/injection, schedule: Q01DX009 (ip), vehicle: saline sonified); 172 % of control (dose: 600.0 mg/kg/injection, schedule: Q01DX009 (ip), vehicle: saline with Tween-80); 110 % of control (dose: 600.0 mg/kg/injection, schedule: Q01DX009 (ip), vehicle: saline).

In the case of `CCOP(=O)(N1CC1(C)C)N1CC1(C)C` (stereo not drawn), the T/C reads like this: (dose: 5.0 mg/kg/injection, schedule: Q01DX009 (ip), vehicle: saline) 109 % of control; (dose: 20.0 mg/kg/injection, schedule: Q01DX009 (ip), vehicle: saline) 159 % of control; (dose: 30.0 mg/kg/injection, schedule: Q01DX009 (ip), vehicle: saline) 194 % of control; under setting [6], 252 % of control.

On to `O=C1C2C3C=CC(O3)C2C(=O)N1/N=C/c1ccc2c(c1)OCO2` (stereo not drawn), for which the T/C is 97 % of control under setting [1], 102 % of control under setting [2] and 93 % of control under setting [3].

Regarding `CC(=O)c1c(O)c2c(=O)n(C)c(C)cc2n(C)c1=O`, the T/C was 100 % of control under setting [7], 100 % of control under setting [8] and 98 % of control under setting [9].

`COc1ccc(OCC2CN(C)CCC2c2ccccc2)cc1` (stereo not drawn): the T/C reads like this: (dose: 12.5 mg/kg/injection, schedule: Q01DX009 (ip), vehicle: saline) 99 % of control; (dose: 25.0 mg/kg/injection, schedule: Q01DX009 (ip), vehicle: saline) 100 % of control; under setting [6], 101 % of control and 94 % of control.

Regarding `CNC(=O)c1nn(-c2ccccc2)c2oc(=O)cc(C)c12`, the T/C was 95 % of control under setting [7], 87 % of control under setting [8] and 87 % of control under setting [9].

Consider `CC(=O)N1NC(=O)c2c(c3ccccc3n2C)C1c1ccc(C)cc1` (stereo not drawn), for which the T/C is 100 % of control under setting [10], 110 % of control under setting [11] and 110 % of control under setting [12].

As to `CNC(=O)OCCC(OC(=O)NC)C1CCC2C3CC=C4CC(OC(=O)NC)CCC4(C)C3CCC12C` (stereo not drawn), the T/C by setting is: (dose: 60.0 mg/kg/injection, schedule: Q01DX005 (ip), vehicle: Klucel (hydroxypropylcellulose) (HPC)) 99 % of control; (dose: 120.0 mg/kg/injection, schedule: Q01DX005 (ip), vehicle: Klucel (hydroxypropylcellulose) (HPC)) 93 % of control; (dose: 240.0 mg/kg/injection, schedule: Q01DX005 (ip), vehicle: Klucel (hydroxypropylcellulose) (HPC)) 100 % of control.

As to `O=S(=O)(O)O.O=S(=O)([O-])[O-].O=[N+]([O-])O.[Co+3].[Co+3].[NH2-].[NH2-].[NH2-].[NH2-].[NH2-].[NH2-].[NH2-].[NH2-].[NH2-]`, the T/C by setting is: (dose: 1.0 mg/kg/injection, schedule: Q01DX009 (ip), vehicle: saline) 98 % of control; (dose: 2.0 mg/kg/injection, schedule: Q01DX009 (ip), vehicle: saline) 93 % of control.

On to `COc1cc2cc(c1Cl)N(C)C(=O)C[C@H](OC(=O)[C@H](C)N(C)C(=O)CC(C)C)[C@]1(C)O[C@H]1[C@H](C)[C@@H]1C[C@@](O)(NC(=O)O1)[C@H](OC)C=C/C=C(\C)C2`, for which the T/C was 107 % of control (dose: 0.1 micrograms/kg/injection, schedule: Q01DX009 (ip), vehicle: saline); 107 % of control (dose: 0.2 micrograms/kg/injection, schedule: Q01DX009 (ip), vehicle: saline); 114 % of control (dose: 0.4 micrograms/kg/injection, schedule: Q01DX009 (ip), vehicle: saline); 158 % of control (dose: 6.3 micrograms/kg/injection, schedule: Q01DX009 (ip), vehicle: saline + alcohol); 169 % of control (dose: 12.5 micrograms/kg/injection, schedule: Q01DX009 (ip), vehicle: saline + alcohol); 198 % of control (dose: 25.0 micrograms/kg/injection, schedule: Q01DX009 (ip), vehicle: saline + alcohol).

With `CC(C)=CCC1(O)C(=O)c2ccccc2C1(O)C(=O)O` (stereo not drawn), the T/C by setting is: (dose: 25.0 mg/kg/injection, schedule: Q01DX009 (ip), vehicle: Klucel (hydroxypropylcellulose) (HPC)) 101 % of control; under setting [13], 100 % of control; under setting [14], 107 % of control; under setting [15], 99 % of control.

Take `Cc1nc([N+](=O)[O-])cn1-c1nc2ccccn2c1[N+](=O)[O-]`: the T/C was 92 % of control under setting [13], 94 % of control under setting [14] and 91 % of control under setting [15].

As for `COC(=O)CN(CC(=O)OC)C1CC1N(CC(=O)OC)CC(=O)OC` (stereo not drawn), the T/C was 89 % of control under setting [13]; 98 % of control under setting [10]; 97 % of control under setting [14]; 102 % of control under setting [11]; 95 % of control under setting [15]; 89 % of control under setting [12].

On to `N#CCCNc1ccc(F)cc1`, for which the T/C reads like this: under setting [6], 100 % of control; (dose: 100.0 mg/kg/injection, schedule: Q01DX009 (ip), vehicle: saline) 109 % of control; (dose: 200.0 mg/kg/injection, schedule: Q01DX009 (ip), vehicle: saline) 104 % of control.

On to `CCOc1ccc(NS(=O)(=O)c2ccc(N)cc2)cc1CN(CCCl)CCCl`, for which the T/C was 99 % of control under setting [4]; 99 % of control under setting [5]; 93 % of control (dose: 400.0 mg/kg/injection, schedule: Q01DX001 (ip), vehicle: saline with Tween-80).

Turning to `O=C1C(CBr)(CBr)CCC12CN=C(Br)C2` (stereo not drawn), the T/C by setting is: under setting [1], 100 % of control; under setting [2], 98 % of control; under setting [3], 100 % of control.
